In brackets after ≈: the same amount, converted by molar mass.
Key:
Test in all cases: ≥ marks a high value that may be exact or a test limit, other limits are often not marked, values filed in µg/mL are converted to µM
[1] = system: Pseudomonas aeruginosa ATCC 27853
[2] = system: Candida albicans
[3] = system: Escherichia coli ATCC 25922
[4] = system: Bacillus subtilis ATCC 6633
[5] = system: Candida albicans ATCC 10231
[6] = system: Bacillus subtilis ATCC 23857
[7] = system: Staphylococcus aureus ATCC 2592
[8] = system: Bacillus subtilis 168
[9] = system: Pseudomonas aeruginosa
[10] = system: Staphylococcus aureus
[11] = system: Escherichia coli B
[12] = system: Klebsiella pneumoniae ATCC 700603
[13] = system: Staphylococcus aureus ATCC 25923
[14] = system: Pseudomonas aeruginosa ATCC 9027
[15] = system: Candida albicans ATCC 2002
[16] = system: Enterococcus faecalis ATCC 29212
[17] = system: Staphylococcus aureus ATCC 29213
[18] = system: Salmonella enterica subsp. enterica serovar Typhimurium C77-31
[19] = system: Staphylococcus epidermidis ATCC 12228
[20] = system: Salmonella enterica subsp. enterica serovar Pullorum C79-13
[21] = system: Acinetobacter baumannii ATCC 19606

MIC [3] | MIC [8] | MIC [9] | MIC [10] | MIC [11] | SMILES | also measured
4.44 µM (≈ 8.84 µg/mL) |  |  |  |  | CC[C@H](C)[C@H](NC(=O)[C@H](CCC(=O)O)NC(=O)[C@H](CCCCN)NC(=O)[C@H](CCSC)NC(=O)[C@H](CCCCN)NC(=O)[C@H](C)NC(=O)[C@H](CC(C)C)NC(=O)[C@H](Cc1ccccc1)NC(=O)[C@H](C)NC(=O)[C@H](CCC(N)=O)NC(=O)[C@H](CC(C)C)NC(=O)[C@H](CCCN=C(N)N)NC(=O)CN)C(=O)N[C@@H](C)C(=O)N[C@@H](C)C(=O)N[C@@H](CCC(N)=O)C(=O)N[C@H](C(=O)N[C@@H](CC(C)C)C(N)=O)[C@@H](C)O [GRLQAFLAKMKEIAAQTL] | MIC [1]: 7.1 µM (≈ 14.1 µg/mL); MIC [2]: 1.77 µM (≈ 3.52 µg/mL); MIC [4]: 2.22 µM (≈ 4.41 µg/mL)
 |  |  |  |  | CC(C)C[C@H](NC(=O)[C@H](CC(C)C)NC(=O)[C@H](CCCN=C(N)N)NC(=O)[C@H](CCCN=C(N)N)NC(=O)[C@H](CC(C)C)NC(=O)[C@@H](N)CC(C)C)C(=O)N[C@@H](CCCN=C(N)N)C(=O)N[C@@H](CCCN=C(N)N)C(N)=O [LLRRLLRR] | MIC [5]: 114 µM (≈ 125 µg/mL); MIC [6]: ≥ 57.1 µM
 |  |  |  |  | CC[C@H](C)[C@@H]1NC(=O)[C@H](CO)NC(=O)[C@H](CCCCN)NC(=O)[C@H]([C@@H](C)O)NC(=O)[C@H](Cc2c[nH]c3ccccc23)NC(=O)[C@@H](NC(=O)CN)CSSC[C@@H](C(=O)N[C@@H](Cc2ccccc2)C(=O)O)NC(=O)[C@@H]2CCCN2C(=O)[C@H](CCCCN)NC(=O)[C@@H]2CCCN2C(=O)[C@@H]2CCCN2C1=O [GCWTKSIPPKPCF] | MIC [7]: 2.22 µM (≈ 3.25 µg/mL)
 | 3.3 µM (≈ 4.78 µg/mL) | > 100 µM | > 100 µM | 20 µM (≈ 29 µg/mL) | CC[C@H](C)[C@H](NC(=O)[C@H](CC(C)C)NC(=O)[C@H](Cc1cnc[nH]1)NC(=O)[C@@H]1CCCN1C(=O)[C@H](CC(C)C)NC(=O)[C@@H](NC(=O)[C@H](CCCCN)NC(=O)[C@H](CO)NC(=O)[C@H](Cc1c[nH]c2ccccc12)NC(=O)[C@H](CCSC)NC(=O)CN)[C@@H](C)CC)C(=O)N[C@@H](CCCN=C(N)N)C(N)=O [GMWSKILPHLIR] | 
 | ≥ 200 µM | > 100 µM | > 100 µM | ≥ 100 µM | CC[C@H](C)[C@H](NC(=O)[C@H](CCCCN)NC(=O)[C@H](CCCCN)NC(=O)[C@H](Cc1c[nH]c2ccccc12)NC(=O)[C@H](CC(N)=O)NC(=O)[C@@H](N)C(C)C)C(=O)N[C@@H](CC(C)C)C(=O)NCC(N)=O [VNWKKILG] | 
8 µM (≈ 13 µg/mL) |  |  |  |  | CC[C@H](C)[C@H](NC(=O)[C@H](CCCCN)NC(=O)[C@H](CCCCN)NC(=O)[C@H](C)NC(=O)[C@@H](NC(=O)[C@H](CCCCN)NC(=O)[C@H](CC(C)C)NC(=O)[C@H](CC(C)C)NC(=O)[C@H](CCCCN)NC(=O)[C@H](CCCCN)NC(=O)[C@H](CC(C)C)NC(=O)[C@H](CC(N)=O)NC(=O)[C@@H](N)CC(C)C)C(C)C)C(=O)N[C@@H](CC(C)C)C(N)=O [LNLKKLLKVAKKIL] | MIC [12]: 8 µM (≈ 13 µg/mL); MIC [13]: 16 µM (≈ 25.9 µg/mL); MIC [6]: 4 µM (≈ 6.48 µg/mL); MIC [14]: 4 µM (≈ 6.48 µg/mL)
 | 1.3 µM (≈ 2.62 µg/mL) | 18.3 µM (≈ 36.8 µg/mL) | 4.7 µM (≈ 9.46 µg/mL) | 1.6 µM (≈ 3.22 µg/mL) | CC[C@H](C)[C@H](NC(=O)[C@H](CO)NC(=O)[C@H](CC(C)C)NC(=O)[C@H](Cc1ccccc1)NC(=O)CN)C(=O)N[C@@H](CC(C)C)C(=O)N[C@@H](CCCCN)C(=O)N[C@@H](CCCCN)C(=O)N[C@H](C(=O)N[C@@H](CC(C)C)C(=O)N[C@@H](C)C(=O)N[C@@H](CCCCN)C(=O)N[C@H](C(=O)N[C@@H](CCSC)C(=O)N[C@@H](C)C(=O)N[C@@H](Cc1cnc[nH]1)C(=O)N[C@@H](CCSC)C(=O)N[C@@H](CCCCN)C(N)=O)C(C)C)C(C)C [GFLSILKKVLAKVMAHMK] | 
18.5 µM (≈ 50 µg/mL) |  |  |  |  | CC[C@H](C)[C@H](NC(=O)[C@H](CCCN=C(N)N)NC(=O)[C@@H](NC(=O)[C@@H]1CCCN1C(=O)[C@@H](NC(=O)[C@@H](NC(=O)[C@H](CCC(N)=O)NC(=O)[C@@H]1CCCN1C(=O)[C@@H](NC(=O)[C@@H](NC(=O)[C@H](Cc1cnc[nH]1)NC(=O)[C@@H]1CCCN1C(=O)[C@@H]1CCCN1C(=O)[C@@H](NC(=O)CNC(=O)CNC(=O)[C@H](C)NC(=O)[C@H](CCCCN)NC(=O)[C@H](C)N)[C@@H](C)CC)C(C)C)[C@@H](C)CC)[C@@H](C)CC)C(C)C)C(C)C)C(=O)N[C@@H](CCCN=C(N)N)C(=O)N1CCC[C@H]1C(=O)N[C@@H](CC(C)C)C(=O)N[C@@H](CS)C(=O)NCC(=O)N[C@@H](CC(N)=O)C(=O)N[C@H](C(=O)O)C(C)C [AKAGGIPPHVIPQIVPVRIRPLCGNV] | MIC [15]: 9.25 µM (≈ 25 µg/mL); MIC [7]: 4.66 µM (≈ 12.6 µg/mL)
 | ≥ 40 µM | > 100 µM | > 100 µM | ≥ 40 µM | CC[C@H](C)[C@H](N)C(=O)N[C@@H](CC(C)C)C(=O)NCC(=O)N[C@@H](CCCCN)C(=O)N[C@H](C(=O)N[C@H](C(=O)N[C@@H](CCCCN)C(=O)N[C@H](C(=O)N[C@H](C(=O)N[C@@H](CCCCN)C(N)=O)C(C)C)C(C)C)[C@@H](C)CC)[C@@H](C)CC [ILGKIIKVVK] | 
64 µM (≈ 193 µg/mL) |  |  |  |  | CC(C)C[C@H](NC(=O)[C@@H](NC(=O)[C@@H](NC(=O)[C@@H](N)CC(C)C)C(C)C)[C@@H](C)O)C(=O)N[C@H](C(=O)N[C@@H](Cc1ccccc1)C(=O)N[C@H](C(=O)NCC(=O)NCC(=O)NCC(=O)N[C@@H](Cc1c[nH]c2ccccc12)C(=O)N[C@@H](CCCCN)C(=O)N[C@@H](Cc1c[nH]c2ccccc12)C(=O)N[C@@H](CCCCN)C(=O)N[C@@H](Cc1c[nH]c2ccccc12)C(=O)N[C@@H](CCC(=O)O)C(=O)N[C@@H](CC(N)=O)C(=O)NCC(=O)N[C@@H](CCCCN)C(=O)N[C@@H](Cc1c[nH]c2ccccc12)C(=O)N[C@@H](CCCCN)C(=O)N[C@@H](Cc1c[nH]c2ccccc12)C(=O)N[C@@H](CCCCN)C(=O)N[C@@H](Cc1c[nH]c2ccccc12)C(=O)O)C(C)C)C(C)C [LVTLVFVGGGWKWKWENGKWKWKW] | MIC [16]: 8 µM (≈ 24.2 µg/mL); MIC [17]: > 128 µM; MIC [18]: ≥ 128 µM; MIC [19]: > 128 µM; MIC [20]: ≥ 128 µM
 | 1.3 µM (≈ 1.98 µg/mL) | 25 µM (≈ 38.1 µg/mL) | 12.2 µM (≈ 18.6 µg/mL) | 5 µM (≈ 7.63 µg/mL) | CC[C@H](C)[C@H](NC(=O)[C@H](Cc1cnc[nH]1)NC(=O)[C@H](CCCCN)NC(=O)[C@H](CC(C)C)NC(=O)[C@H](CC(C)C)NC(=O)[C@H](CO)NC(=O)[C@H](CCSC)NC(=O)[C@H](Cc1c[nH]c2ccccc12)NC(=O)[C@H](CCCCN)NC(=O)CN)C(=O)N[C@@H](Cc1c[nH]c2ccccc12)C(=O)N[C@@H](CCCCN)C(N)=O [GKWMSLLKHIWK] | 
> 512 µM |  |  |  |  | CC(C)C[C@H](NC(=O)[C@H](C)NC(=O)[C@@H](NC(=O)[C@H](CCCCN)NC(=O)[C@H](C)NC(=O)[C@H](CCCN=C(N)N)NC(=O)[C@H](CCCCN)NC(=O)[C@H](CC(C)C)NC(=O)[C@H](C)NC(=O)CN)[C@@H](C)O)C(N)=O [GALKRAKTAL] | MIC [12]: > 512 µM; MIC [13]: > 512 µM; MIC [21]: > 512 µM; MIC [16]: > 512 µM; MIC [1]: > 512 µM; MIC [19]: > 512 µM; MIC [6]: ≥ 512 µM
32 µM (≈ 42.2 µg/mL) |  |  |  |  | CC[C@H](C)[C@H](NC(=O)[C@H](CCCN=C(N)N)NC(=O)[C@H](CCCCN)NC(=O)[C@H](Cc1ccccc1)NC(=O)[C@H](Cc1ccccc1)NC(=O)CN)C(=O)N[C@@H](CCCN=C(N)N)C(=O)N[C@H](C(=O)N[C@@H](Cc1ccccc1)C(=O)N[C@@H](Cc1ccccc1)C(N)=O)[C@@H](C)O [GFFKRIRTFF] | MIC [12]: 32 µM (≈ 42.2 µg/mL); MIC [13]: 16 µM (≈ 21.1 µg/mL); MIC [21]: 64 µM (≈ 84.3 µg/mL); MIC [16]: 64 µM (≈ 84.3 µg/mL); MIC [1]: 4 µM (≈ 5.27 µg/mL); MIC [19]: 64 µM (≈ 84.3 µg/mL); MIC [6]: 16 µM (≈ 21.1 µg/mL)
 | 18.3 µM (≈ 22.4 µg/mL) | > 100 µM | > 100 µM | ≥ 100 µM | CC[C@H](C)[C@H](NC(=O)[C@H](CC(C)C)NC(=O)[C@H](Cc1cnc[nH]1)NC(=O)CNC(=O)[C@H](CC(C)C)NC(=O)[C@@H](NC(=O)[C@H](CCCCN)NC(=O)[C@H](CO)NC(=O)[C@@H](N)Cc1c[nH]c2ccccc12)[C@@H](C)CC)C(=O)N[C@@H](CCCN=C(N)N)C(N)=O [WSKILGHLIR] | 
 | 2.2 µM (≈ 3.13 µg/mL) | 93 µM (≈ 133 µg/mL) | 100 µM (≈ 142 µg/mL) | 28.3 µM (≈ 40.3 µg/mL) | CC[C@H](C)[C@H](NC(=O)[C@H](CCCCN)NC(=O)[C@H](CO)NC(=O)[C@H](Cc1c[nH]c2ccccc12)NC(=O)[C@H](CCSC)NC(=O)CN)C(=O)N[C@@H](CC(C)C)C(=O)NCC(=O)N[C@@H](Cc1cnc[nH]1)C(=O)N[C@@H](CC(C)C)C(=O)N[C@@H](CCCCN)C(=O)N[C@@H](CCCN=C(N)N)C(N)=O [GMWSKILGHLKR] | 

Reference: DBAASP
